# Test results published in article PMC9572546, “Discovery of Novel c-Jun N-Terminal Kinase 1 Inhibitors from Natural Products: Integrating Artificial Intelligence with Structure-Based Virtual Screening and Biological Evaluation” (Molecules, 2022).
# Target: T1, c-Jun N-terminal kinase 1 (JNK1) (Homo sapiens, UniProt P45983)
# T1 construct: gene MAPK8
# Assay: LANCE Ultra TR-FRET kinase assay (PerkinElmer), 10-point two-fold dilution
# Type: biochemical
# T1 sequence (P45983 whole entry): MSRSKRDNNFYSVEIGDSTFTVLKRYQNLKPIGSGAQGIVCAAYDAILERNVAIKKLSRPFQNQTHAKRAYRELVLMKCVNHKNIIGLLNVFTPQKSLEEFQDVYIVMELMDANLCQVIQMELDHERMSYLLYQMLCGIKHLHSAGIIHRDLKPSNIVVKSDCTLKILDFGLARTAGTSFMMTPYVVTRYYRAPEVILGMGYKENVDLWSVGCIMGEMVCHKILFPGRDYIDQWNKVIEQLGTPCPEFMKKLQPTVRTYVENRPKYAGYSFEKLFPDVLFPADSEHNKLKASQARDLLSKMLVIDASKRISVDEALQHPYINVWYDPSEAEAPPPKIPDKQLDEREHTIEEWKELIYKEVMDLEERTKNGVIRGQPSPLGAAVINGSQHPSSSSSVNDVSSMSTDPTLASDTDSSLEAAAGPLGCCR
structure (smiles),measurement,value
COc1cc(-c2cc(=O)c3c(O)cc(O)cc3o2)cc(OC)c1O [Tricin],IC50,17.7 µM
